The values below come from patent publication US11192849B2, “Compounds, compositions, and methods for modulating ferroptosis and treating excitotoxic disorders” (THE TRUSTEES OF COLUMBIA UNIVERSITY IN THE CITY OF NEW YORK, priority 2013, dated 2021).

In this assay the test system is HT-1080 cells. As to the kind of experiment: Inhibition of erastin (10 μM)-induced death in HT-1080 cells (Alamar Blue). The following applies: for prevention of erastin-induced death: erastin-treated HT-1080 cells. The assay is classed as cell-based, human. How it is done:
Cell viability was typically assessed in 384-well format by Alamar Blue (Invitrogen) fluorescence (ex/em 530/590) measured on a Victor3 platereader (Perkin Elmer, Waltham, Mass.). In some experiments, Trypan Blue dye exclusion counting was performed using an automated cell counter (ViCell, Beckman-Coulter Inc., Brea, Calif.). Cell viability in test conditions is reported as a percentage relative to the negative control treatment.
The ability of various compounds disclosed herein to inhibit death in erastin (10 μM)-treated HT-1080 cells were tested. Cell viability was assessed by Alamar Blue. EC50 values (nM) were computed from dose response curves.
HT-1080 cells are cultured in DMEM containing 10% fetal bovine serum, 1% supplemented non-essential amino acids and 1% pen/strep mixture (Gibco) and maintained in a humidified environment at 37° C. with 5% CO2 in a tissue culture incubator. 1,000 HT-1080 cells are seeded per well in duplicate 384-well plates (Corning) using a BioMek FX liquid handling robot (Beckman Coulter). The next day, the medium is replaced with 36 μL of medium containing 10 μM erastin with 4 μL of medium containing a dilution series (previously prepared) of DMSO, Fer-1 (positive control) or Fer-1 analogs. 24 hours later, 10 μL Alamar Blue (Invitrogen) cell viability solution is added to the growth media to a final concentration of 10%. Cells are incubated a further 6 hours and then the Alamar Blue fluorescence intensity recorded using a Victor 3 platereader (PerkinElmer)(ex/em 530/590). All experiments are performed at least twice and the background (no cells)-subtracted Alamar Blue values for each combination are averaged between replicates.
(In general: Alamar Blue is a resazurin reagent that responds to reducing activity.)

[1] abbreviates: SI Table 2, analogs with various hydrophobic moieties, read-out: EC50.
The mark [2] stands for this setting: Homo sapiens, HT-1080, SI Table 7, read-out: EC50.
[3] abbreviates: Homo sapiens, HT-1080, SI Table 4, various R3 substitutions, read-out: EC50.
Where [4] appears, read: SI Table 3, cyclic amines bearing heteroatoms, read-out: EC50.
[5] abbreviates: Homo sapiens, HT-1080, SI Table 2, analogs with various hydrophobic moieties, read-out: EC50.
[6] abbreviates: Homo sapiens, HT-1080, SI Table 3, cyclic amines bearing heteroatoms, read-out: EC50.
Setting [7] is: Homo sapiens, HT-1080, SI Table 5, read-out: EC50.
Where [8] appears, read: Homo sapiens, HT-1080, SI Table 6, read-out: EC50.

Read-outs that look alike come from different tables or passages of the source. A value given as a limit tells only on which side of the number the result lay.

For the compound `CCOC(=O)c1ccc(NC2CCC(C(C)(C)C)CC2)c(N)c1` (single isomer, unassigned) [SRS13-10_F1, Ethyl 3-amino-4-(4-tert-butylcyclohexyl-amino)benzoate], under setting [1], the concentration for a half-maximal effect (EC50) came to 44 nM.
For the compound `CCOC(=O)c1ccc(NC2CCC(C(C)(C)C)CC2)c(N)c1` (single isomer, unassigned) [SRS13-10_F2, Ethyl 3-amino-4-(4-tert-butylcyclohexyl-amino)benzoate], the EC50 under setting [1] turned out to be 13 nM.
As for `CCOC(=O)c1ccc(NC2CCC(C(C)(C)C)CC2)c(NCc2ccccc2)c1` (single isomer, unassigned) [SRS13-29, ethyl 3-(benzylamino)-4-(4-tert-butylcyclohexylamino)benzoate], the EC50 under setting [2] was found to be 83 nM.
For the compound `c1ccc(-c2ccccn2)nc1` [2,2-bipyridyl, reference compound], where the note is “added up to 6 hours after erastin”, the “protection when added after erastin” value is recorded as “substantial protection from death”.
Turning to `NOCC(=O)O` [AOA, aminooxyacetic acid, reference compound], the “prevention of erastin-induced death” value is “rescued both HT-1080 and BJeLR cells from erastin-induced ferroptosis”.
For the compound `CC(=O)OCOC(=O)CN(CC(=O)OCOC(C)=O)c1ccccc1OCCOc1ccccc1N(CC(=O)OCOC(C)=O)CC(=O)OCOC(C)=O` [BAPTA-AM, reference compound], the “prevention of erastin-induced death” value is given as “had no effect on erastin-induced death”.
`CCOC(=O)c1ccc(NC2CCCCC2)c(NCc2ccc(OC(C)=O)cc2)c1` [Compound 4MO43, ethyl 4-(cyclohexylamino)-3-(4-(ethanoyloxy)benzylamino)-benzoate]: under setting [2], the EC50 was determined as 47 nM.
For `O=C(O)C(Cl)Cl` [DCA, dichloroacetic acid, reference compound], the “prevention of erastin-induced death” value is “had no effect on erastin-induced ferroptosis”.
For the compound `COC(=O)CCC(=O)C(=O)OC` [DMK, dimethyl alpha ketoglutarate, reference compound], the “prevention of erastin-induced death” value is “the lethality of erastin was restored”.
Same read-out and setting: the value for `O=C(O)CN(CCOCCOCCN(CC(=O)O)CC(=O)O)CC(=O)O` [EGTA, reference compound] was “had no effect on erastin-induced death”; that for `Cc1ccc(N(CC(=O)O)CC(=O)O)c(OCCOc2cc3cc(-c4ncc(C(=O)O)o4)oc3cc2N(CC(=O)O)CC(=O)O)c1` [Fura-2, reference compound] was “had no effect on erastin-induced death”.
In the case of `CC(C)(C)OC(=O)NCCOCCOC(=O)c1ccc(NC2CCCCC2)c(N)c1` [SRS8-37, 2-(2-(tert-butoxycarbonylamino)ethoxy)ethyl 3-amino-4-(cyclohexylamino)benzoate], the EC50 under setting [3] amounted to 160 nM.
With `CCOC(=O)c1ccc(NC2CCOCC2)c(N)c1` [SRS8-41], the concentration for a half-maximal effect (EC50) under setting [4] worked out at 1450 nM.
Consider `CCOC(=O)c1ccc(Nc2ccccc2)c(N)c1` [SRS8-42, ethyl 3-amino-4-(phenylamino)benzoate], for which the EC50 under setting [5] was 200 nM.
Regarding `NCCOCCOC(=O)c1ccc(NC2CCCCC2)c(N)c1` [SRS8-43, 2-(2-aminoethoxy)ethyl 3-amino-4-(cyclohexylamino)benzoate], the 50% effective concentration (EC50) (Homo sapiens, HT-1080, SI Table 4, various R3 substitutions) turned out to be 420 nM.
Take `CCOC(=O)c1ccc(NC2CCC(NC(=O)OC(C)(C)C)CC2)c(N)c1` (stereo not drawn) [SRS8-46, ethyl 3-amino-4-(4-(tert-butoxycarbonylamino)cyclohexyl-amino)benzoate]: under setting [6], the concentration for a half-maximal effect (EC50) was determined as 515 nM.
`CCOC(=O)c1ccc(NC2CCN(C(=O)OC(C)(C)C)CC2)c(N)c1` [SRS8-47, tert-butyl 4-(2-amino-4-(ethoxycarbonyl)phenylamino)-piperidine-1-carboxylate]: the 50% effective concentration (EC50) under setting [6] was 710 nM.
Regarding `CCOC(=O)c1ccc(NC2CCC(C)CC2)c(N)c1` (stereo not drawn) [SRS8-48, ethyl 3-amino-4-(4-methylcyclohexylamino)benzoate], the EC50 under setting [5] was found to be 90 nM.
As to `CCOC(=O)c1ccc(NC2CCC(F)(F)CC2)c(N)c1` [SRS8-52, ethyl 3-amino-4-(4,4-difluorocyclohexylamino)benzoate], under setting [6], the EC50 was found to be 650 nM.
For the compound `CCOC(=O)c1ccc(NN2CCN(C)CC2)c(N)c1` [SRS8-53], the EC50 under setting [4] was determined as 3600 nM.
Take `CCOC(=O)c1ccc(NC2CCN(C(=O)OCC)CC2)c(N)c1` [SRS8-54, ethyl 4-(2-amino-4-(ethoxycarbonyl)phenylamino)piperidine-1-carboxylate]: the 50% effective concentration (EC50) under setting [6] came to 2500 nM.
As for `COC(=O)c1ccc(NC2CCCCC2)c(N)c1` [SRS8-61, methyl 3-amino-4-(cyclohexylamino)benzoate], the EC50 under setting [3] worked out at 150 nM.
With `CCOC(=O)c1ccc(Cl)c(N)c1` [SRS8-62], where the note is “SI Table 8, read-out: EC50”, the EC50 is above 10000 nM.
`CCOC(=O)c1ccc(NC2CCCCCCC2)c(N)c1` [SRS8-70, ethyl 3-amino-4-(cyclooctylamino)benzoate]: the 50% effective concentration (EC50) under setting [5] was determined as 80 nM and the EC50 under setting [7] stood at 69 nM.
As for `CCOC(=O)c1ccc(NC2CCCC2)c(N)c1` [SRS8-73], under setting [1], the EC50 was found to be 120 nM.
Turning to `Nc1ccccc1NC1CCCCC1` [SRS8-75, N1-cyclohexylbenzene-1,2-diamine], the 50% effective concentration (EC50) under setting [3] turned out to be 330 nM.
As to `CCOC(=O)c1ccc(NC2CCC(N)CC2)c(N)c1` (stereo not drawn) [SRS8-80, ethyl 3-amino-4-(4-aminocyclohexylamino)benzoate], the concentration giving a half-maximal response (EC50) under setting [6] is 380 nM.
As for `CC(C)(C)OC(=O)c1ccc(NC2CCCCCCC2)c(N)c1` [SRS8-87, tert-butyl 3-amino-4-(cyclooctylamino)benzoate], the concentration giving a half-maximal response (EC50) under setting [3] was determined as 90 nM.
In the case of `CCOC(=O)c1ccc(NC2CCCCCC2)c(N)c1` [SRS8-90], the concentration for a half-maximal effect (EC50) under setting [1] was 130 nM.
For `CCOC(=O)c1ccc(NC2CCCCCCC2)c(NC(=O)OC(C)(C)C)c1` [SRS8-91, ethyl 3-(tert-butoxycarbonylamino)-4-(cyclooctylamino)-benzoate], under setting [7], the EC50 is above 10000 nM.
`CCCCCCCCNc1ccc(C(=O)OCC)cc1N` [SRS8-94, ethyl 3-amino-4-(octylamino)benzoate]: the EC50 under setting [5] was 80 nM and the EC50 under setting [7] turned out to be 80 nM.
With `CCOC(=O)c1ccc(NC2CCCCCCC2)c(N(C)C)c1` [SRS9-01, ethyl 4-(cyclooctylamino)-3-(dimethylamino)benzoate], the EC50 under setting [7] worked out at 3000 nM.
With `CCOC(=O)c1ccc(NC2CCCCCCCCCCC2)c(N)c1` [SRS9-06, ethyl 3-amino-4-(cyclododecylamino)benzoate], the EC50 under setting [5] amounted to 70 nM.
As for `CCOC(=O)c1ccc(NC2CCCCCCC2)c(NC)c1` [SRS9-14, ethyl 4-(cyclooctylamino)-3-(methylamino)benzoate], the concentration for a half-maximal effect (EC50) under setting [7] came to 70 nM.
Take `CCOC(=O)c1ccc(NC2CCCCC2)c(NC(=O)OCc2ccccc2)c1` [SRS11-89, ethyl 3-(benzyloxycarbonylamino)-4-(cyclohexylamino)-benzoate]: the concentration for a half-maximal effect (EC50) under setting [7] was above 10000 nM.
On to `CCOC(=O)c1ccc(NC2CCCCC2)c(NC(=O)OC)c1` [SRS11-97, ethyl 4-(cyclohexylamino)-3-(methoxycarbonylamino)benzoate], for which the concentration giving a half-maximal response (EC50) under setting [7] is above 10000 nM.
Still for that read-out and setting: the same measure for `CCOC(=O)c1ccc(NC2CCCCC2)c(NC(C)=O)c1` [SRS11-98, ethyl 4-(cyclohexylamino)-3-ethanamidobenzoate]: above 10000 nM.
In the case of `CCCCCCCCN(CCCCCCCC)c1ccc(C(=O)OCC)cc1N` [SRS12-12, ethyl 3-amino-4-(dioctylamino)benzoate], the EC50 under setting [7] worked out at 15300 nM.
As for `CCCCCCCCCCOC(=O)c1ccc(NC2CCCCC2)c(N)c1` [SRS12-29, decyl 3-amino-4-(cyclohexylamino)benzoate], under setting [3], the 50% effective concentration (EC50) came to 76 nM.
On to `CCOC(=O)c1ccc(NC2CCCCC2)c(NCc2ccc(F)cc2)c1` [SRS12-33, ethyl 4-(cyclohexylamino)-3-((4-fluorobenzyl)amino)benzoate], for which the EC50 under setting [8] was found to be 50 nM.
On the same count and under the same terms, the same measure for `CCOC(=O)c1ccc(NC2CCCCC2)c(NCc2ccc(C)cc2)c1` [SRS12-34, ethyl 4-(cyclohexylamino)-3-((4-methylbenzyl)amino)benzoate]: 40 nM; for `CCOC(=O)c1ccc(NC2CCCCC2)c(NCc2ccc(Br)cc2)c1` [SRS12-35, ethyl 3-((4-bromobenzyl)amino)-4-(cyclohexylamino)benzoate]: 44 nM.
Take `CCOC(=O)c1ccc(NC2CCCCC2)c(NCc2ccc([N+](=O)[O-])cc2)c1` [SRS12-36, ethyl 4-(cyclohexylamino)-3-((4-nitrobenzyl)amino)benzoate]: the concentration giving a half-maximal response (EC50) under setting [8] is 36 nM.
On to `CCOC(=O)c1ccc(NC2CCCCC2)c(NCc2ccc(OC)cc2)c1` [SRS12-43, ethyl 4-(cyclohexylamino)-3-((4-methoxybenzyl)amino)-benzoate], for which the EC50 under setting [8] worked out at 69 nM.
With `CCOC(=O)c1ccc(NC2CCCCC2)c(NCc2ccncc2)c1` [SRS12-45, ethyl 4-(cyclohexylamino)-3-((pyridin-4-ylmethyl)amino)-benzoate], the “potency compared with Fer-1” value (HT-1080, erastin (10 μM)) is given as “more potent than Fer-1”. For the same compound, the concentration for a half-maximal effect (EC50) under setting [2] came to 25 nM.

Usually EC50 stands for the concentration at which the effect is half-maximal.
